Values of other authors, collected in patent US9877974B2, “Topical formulations comprising a steroid” (Dr. Reddy's Laboratories Ltd., priority 2009, dated 2018).

- Solubility in acetone (acetone): freely soluble
- Solubility in chloroform (chloroform): freely soluble
- Solubility in ethanol (ethanol): sparingly soluble
- Solubility in water (water): practically insoluble
Compound: CCC(=O)OCC(=O)[C@@]1(OC(=O)CC)[C@@H](C)C[C@H]2[C@@H]3CCC4=CC(=O)C=C[C@]4(C)[C@@]3(F)[C@@H](O)C[C@@]21C [Betamethasone dipropionate, 9-fluoro-11(β),17,21-trihydroxy-16(β)-methylpregna-1,4-diene-3,20-dione 17,21-dipropionate]
